Laboratory results from US11707447B1.
pEC50, pIC50: −log10 of the molar value. “Also recorded” adds a separate entry of the source.

What was measured:
[1] = test system: HepG2 cells; experiment: PrestoBlue cell viability assay; type: cell-based, human; settings: 48 h incubation
Text: Non-treated cells were assigned 100% viability. Bar graphs show the mean+/−SD, n=3.

[2] = target: DRD1 (Homo sapiens, UniProt P21728); experiment: SAFETYscan EFC-based cAMP secondary messenger assay (agonist/antagonist mode); type: cell-based
Sequence of DRD1 (P21728 whole entry): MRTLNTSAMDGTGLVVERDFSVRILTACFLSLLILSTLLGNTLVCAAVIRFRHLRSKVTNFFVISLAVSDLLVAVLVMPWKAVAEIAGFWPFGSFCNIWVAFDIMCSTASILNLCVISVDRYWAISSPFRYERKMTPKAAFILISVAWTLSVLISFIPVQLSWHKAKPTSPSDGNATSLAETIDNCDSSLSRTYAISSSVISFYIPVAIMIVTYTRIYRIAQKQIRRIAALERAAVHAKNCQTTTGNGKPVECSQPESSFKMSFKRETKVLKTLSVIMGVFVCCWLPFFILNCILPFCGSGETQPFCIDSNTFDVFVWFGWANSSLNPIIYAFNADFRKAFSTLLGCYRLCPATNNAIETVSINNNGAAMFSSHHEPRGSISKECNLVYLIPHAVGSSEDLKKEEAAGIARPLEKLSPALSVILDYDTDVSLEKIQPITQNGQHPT

[3] = In vitro metabolic stability / psilocin release, human AB serum; type: in vitro ADME
Text: A fundamental evaluation in drug development is the assessment of absorption, distribution, metabolism, excretion, and pharmacokinetics (ADME/PK) (Eddershaw et al., 2000, Drug Discovery Today 5(9): 409-414). […] Drug stability upon exposure to human liver microsomes and liver S9 cellular fractions is a common in vitro assay to approximate in vivo, liver-based drug metabolism (Richardson et al., 2016 Drug Metabolism Letters 10:83-90). First-pass metabolism is also often approximated in vitro using intestinal microsome and cellular S9 fractions (Hatley et al., 2017, Biopharmaceuticals & Drug Disposition, 38(2):155-160). Further, it is well known that human serum, and particularly circulating serum esterases can contribute to systemic drug metabolism (Williams, F M 1987, Pharmacology and Therapeutics, 34:99-109). Many pharmacological agents are classified as prodrugs, as they undergo metabolic transformation in vivo upon administration to release the active drug compound into the systemic compartment (Zawilska J B, et al. 2013, Pharmacological Reports, 65:1-14). Psilocybin, a serotonergic psychedelic agent, is well known prodrug that is metabolized into the psychoactive product, psilocin (Dinis-Oliveira, R J 2017, Drug Metabolism Reviews, 49(1):84-91). To evaluate the capacity of test molecules to similarly serve as prodrugs of psilocin, time-dependent, metabolic stability assays using human AB serum, human intestinal microsomes (HIM), human intestinal S9 fractions (HIS9), human liver microsomes (HLM), human liver S9 fractions (HLS9), human alkaline phosphatase, and porcine esterase were performed. […] Liquid chromatography coupled mass spectrometry (LC-MS) was employed to track the conversion of the test molecules into psilocin. All intestinal and liver fractions and NADPH RapidStart reagent was purchased from Sekisui/XenoTech. Human AB serum was purchased from Sigma. […] Supernatants were analyzed for the presence of candidate prodrugs (parent molecule) and psilocin (the predicted metabolite) using Orbitrap LC-MS (Thermo Scientific) using previously described methods (Menéndez-Perdomo et al., 2021, J. Mass Spectrom., 56: e4683). […] Assay concentrations (μM) of both parent ‘prodrug’ molecule and psilocin metabolite, as quantified through LC-MS using routine standard curve procedures, were plotted as functions of assay time (minutes). The metabolism rate (T1/2) was determined from the metabolism curve plot using the one phase decay feature of GraphPad PRISM software (Version 9.2.0). The quantity of parent prodrug at time zero was set as 100%. […]

[4] = target: T1, 5-HT1A receptor (Homo sapiens, UniProt P08908); experiment: cAMP-Glo assay in +5-HT1A / -5-HT1A CHO-K1 cells; type: cell-based
T1 construct: host or cells: CHO-K1 (co-expressing Ga15)
T1 sequence (P08908 1-422): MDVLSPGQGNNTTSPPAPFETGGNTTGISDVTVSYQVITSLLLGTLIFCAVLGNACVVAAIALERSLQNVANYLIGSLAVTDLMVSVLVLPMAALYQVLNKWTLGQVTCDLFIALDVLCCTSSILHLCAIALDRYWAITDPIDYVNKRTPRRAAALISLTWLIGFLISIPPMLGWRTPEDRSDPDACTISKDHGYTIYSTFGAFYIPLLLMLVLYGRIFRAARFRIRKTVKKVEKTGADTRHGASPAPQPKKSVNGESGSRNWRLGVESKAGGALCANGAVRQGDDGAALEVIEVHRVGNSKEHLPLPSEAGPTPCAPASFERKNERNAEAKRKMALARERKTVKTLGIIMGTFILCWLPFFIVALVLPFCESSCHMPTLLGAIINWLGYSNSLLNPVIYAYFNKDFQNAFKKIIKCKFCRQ

[5] = target: CHRM2 (Homo sapiens, UniProt P08172); experiment: SAFETYscan EFC-based cAMP secondary messenger assay (agonist/antagonist mode)
Sequence of CHRM2 (P08172 whole entry): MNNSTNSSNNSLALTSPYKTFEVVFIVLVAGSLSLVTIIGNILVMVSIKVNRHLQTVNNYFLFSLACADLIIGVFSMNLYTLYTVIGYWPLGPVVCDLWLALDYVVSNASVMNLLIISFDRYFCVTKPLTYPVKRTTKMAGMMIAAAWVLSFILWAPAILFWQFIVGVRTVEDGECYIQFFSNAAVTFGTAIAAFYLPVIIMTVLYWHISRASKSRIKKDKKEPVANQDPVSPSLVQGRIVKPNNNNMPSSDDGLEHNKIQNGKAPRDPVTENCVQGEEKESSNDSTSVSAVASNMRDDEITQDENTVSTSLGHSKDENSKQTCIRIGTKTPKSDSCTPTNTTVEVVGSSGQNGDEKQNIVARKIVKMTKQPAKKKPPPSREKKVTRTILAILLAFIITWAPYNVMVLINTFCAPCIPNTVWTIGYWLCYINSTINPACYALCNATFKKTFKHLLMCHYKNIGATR

[6] = target: DRD2S (Homo sapiens, UniProt P14416); experiment: as above
Sequence of DRD2S (P14416 1-414 isoform P14416-2): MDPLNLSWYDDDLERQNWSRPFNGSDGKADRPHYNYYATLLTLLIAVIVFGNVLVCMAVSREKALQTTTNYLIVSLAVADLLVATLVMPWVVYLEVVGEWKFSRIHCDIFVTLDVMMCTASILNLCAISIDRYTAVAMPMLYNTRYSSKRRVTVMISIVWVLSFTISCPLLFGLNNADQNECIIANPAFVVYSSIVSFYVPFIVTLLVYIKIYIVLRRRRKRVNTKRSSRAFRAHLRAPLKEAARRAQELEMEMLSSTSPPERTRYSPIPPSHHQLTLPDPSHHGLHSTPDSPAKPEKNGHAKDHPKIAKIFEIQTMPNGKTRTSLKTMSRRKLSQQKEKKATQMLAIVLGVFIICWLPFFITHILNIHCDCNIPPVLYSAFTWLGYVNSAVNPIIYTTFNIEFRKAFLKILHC

## CN(C)CCc1c[nH]c2cccc(OC(=O)SCc3ccccc3)c12 [E(VI)]
[1]
  CD50 (cytotoxicity, cell viability): 74.5 µM
[2]
  pEC50: < 4.00
  pIC50: 5.15
[3]; AB serum
  metabolic stability / conversion to psilocin (in words): quickly converted to psilocin in liver fractions and serum; also recorded: nearly completely disappears upon in vitro exposure to AB serum, but yields low quantities of psilocin
[3]; pH 7.4, 10% human AB serum, read-out: half-life (T1/2)
  half-life: 14 min
[4]; cAMP assay, forskolin-stimulated +5-HT1A cells
  EC50 at 5-HT1A: neither molecule engaged 5-HT1A with sufficient potency to calculate an EC50 value
[4]; forskolin-stimulated +5-HT1A vs -5-HT1A cells, increasing ligand
  cAMP level / 5-HT1A receptor modulation (in words): mild receptor modulation at higher ligand concentrations
[5]
  pEC50: < 4.00
  pIC50: 4.29
[6]
  pEC50: < 4.00
  pIC50: 4.88
